“And” between values parts separate entries of the source, which are not always exact repeats. Equal entries are not always repeated.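 In this assay, cells in 96-well plates receive the compound at five concentrations for 48 hours. Endpoints are linearly interpolated between the surrounding concentrations. Abbreviation: GI50, concentration required for 50% inhibition of growth. The concentration for full growth arrest is given as TGI.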

Holding throughout (test): NCI anticancer screen, dose series, 48 h
For assay [1], the system named is M19-MEL melanoma.
For assay [2], the system named is LXFL 529 NSCLC.
In assay [3] the test system is KM20L2 colon.
Assay [4] concerns SNB-78 CNS.
Assay [5] has as its system XF 498 CNS.
The test system of assay [6] is HOP-18 NSCLC.
Assay [7] relates to MDA-N.
Assay [8] relates to DLD-1 colon.
The subject of assay [9] is RXF-631 renal.

Take `NS(=O)(=O)c1ccc(Nc2c3ccccc3nc3c(C(=O)N4CCN(CCO)CC4)cccc23)cc1`: the TGI in assay [1], in assay [2], in assay [3], in assay [4], in [5] and in [6] was more than 100 µM each time.

Take `COCCOC1=CC(=O)c2c(O)ccc(O)c2C1=O`: in assay [7], the GI50 was 0.359 µM; the TGI is 0.341 µM and 1.13 µM.

With `O=[N+]([O-])c1ccc(C(Cl)C(Cl)c2ccc(C(Cl)C(Cl)c3ccc([N+](=O)[O-])cc3[N+](=O)[O-])cc2)c([N+](=O)[O-])c1` (centres undefined), the GI50 was 0.256 µM in assay [1]; 0.251 µM in [8]; 0.336 µM in [9]; 0.179 µM in [2]; 0.762 µM in assay [4]. Further, the TGI in [1] was 3.15 µM and 0.749 µM; in [8] it was 6.02 µM and 0.748 µM; in assay [9] it was 8.92 µM and 1.26 µM; in assay [2] it was 1.9 µM and 0.377 µM; in assay [3] it was 2.28 µM; in [4], > 62 µM and 52.8 µM. The TGI in assay [5] amounted to 0.389 µM.

With `COc1c(/C=C/C=O)cc2c(c1OC)OCO2`, the TGI in [7] turned out to be 94 µM.

Regarding `CCN(CC)CC(C)C(=O)/C=C/c1ccc(C)cc1` (centres undefined), the TGI came to 3.04 µM in assay [1]; 3.16 µM in assay [8]; 3.23 µM in assay [2]; 21.6 µM in assay [3]; 23.1 µM in assay [4]; 2.98 µM in [5]. The molecule also came in with a TGI in [6] of 22.3 µM.

Turning to `CC(C)(C)c1cc(CCCCCCCC2(CCCCCCCc3cc(C(C)(C)C)cc(C(C)(C)C)c3)OC(COCCOCCCCCC#N)C(COCCOCCCCCC#N)O2)cc(C(C)(C)C)c1` (centres undefined), the TGI in assay [1], in assay [8], in assay [2], in [3], in [4] and in assay [6] was more than 100 µM in each case.

Take `Cc1ccc(S(=O)(=O)N2CCN(C=S)CC2)cc1`: the TGI in assay [1], in [8], in assay [9], in assay [2], in assay [3] and in assay [4] was more than 100 µM each time. In [6], this molecule yielded a TGI of more than 100 µM.

Regarding `CC1=NN(C(=O)Nc2ccc(Cl)cc2)C(=O)C2CCC(=O)N12` (centres undefined), the TGI in assay [1], in assay [8], in [2], in assay [3], in assay [4] and in [5] was more than 100 µM throughout.

As to `O=C(c1ccccc1Cl)n1oc2ccccc2c1=O`, in assay [7], the TGI is more than 100 µM.

Regarding `CC1=C(C)C(=O)O[C@@H]([C@](C)(O)[C@]2(O)CC[C@@]3(O)[C@@H]4C[C@H](O)[C@]5(O)[C@@H](O)C=CC(=O)[C@]5(C)[C@H]4CC[C@]23C)C1`, in assay [7], the TGI was more than 100 µM.

As for `C/C(=N\OCC(O)CNCCSCc1ccccc1)c1ccccc1Cl` (centres undefined), in assay [7], the TGI stood at 37.4 µM.

Consider `O=C(N/C(=C\c1cccc([N+](=O)[O-])c1)c1nc2ccccc2[nH]1)c1ccccc1`, for which the TGI was more than 100 µM in assay [1]; more than 100 µM in [8]; more than 100 µM in assay [2]; more than 100 µM in [3]; more than 100 µM in [4]; 87.5 µM in [5].

Regarding `CC(=O)O[C@H]1CCN2C(=O)C=CC(OCc3ccccc3)C12` (some centres undefined), the TGI in [1], in assay [8], in [2], in assay [3], in assay [4] and in [5] was more than 100 µM in each case. In assay [6], this molecule displayed a TGI of more than 100 µM.

In the case of `CSc1nc2nn(Cc3ccccc3)cc2c(=O)[nH]1`, the TGI in assay [1], in [8], in [2], in assay [3], in assay [4] and in [6] was more than 100 µM each time.

On to `N#CCC(=O)N/N=C1/C(=O)N(c2cc(Cl)ccc2Cl)C(=O)C(=O)C1c1nc2ccccc2s1` (centres undefined), for which the TGI in assay [1], in assay [8], in assay [9], in assay [2], in assay [3] and in [4] was more than 100 µM in each case. Besides, the TGI in assay [6] is more than 100 µM.

For the molecule `O=C(NCCCl)Nc1cccnc1`, the TGI in assay [7] came out at 67.9 µM.

In [7], `CCCCCCn1c(SC)nc(COC(=O)NC)c1COC(=O)NC` showed a TGI of 36.1 µM.

Consider `COc1cccc(/C=C/C(=O)c2sc(C(N)=S)nc2C)c1O`, for which the TGI was more than 100 µM in assay [1]; more than 68.5 µM in assay [8]; more than 100 µM in [9]; more than 50.1 µM in assay [2]; more than 100 µM in [3]; more than 100 µM in assay [4]. In addition, the TGI in [5] and in [6] was more than 100 µM throughout.

As for `CCOc1cn(C2OC(CO)C(O)C2O)c(=O)[nH]c1=O` (centres undefined), the TGI in [1], in assay [8], in assay [2], in assay [3], in assay [4] and in [6] was more than 100 µM in each case.

For `Cn1c(=O)nc2n(-c3ccc(Cl)cc3)c3cc(Cl)ccc3nc-2c1=O`, the TGI in [1] was 3.53 µM; in assay [8], 3.9 µM; in assay [9], 4.22 µM; in assay [2] it was 3.13 µM; in [3] it was 35.7 µM; in assay [4] it was more than 57.4 µM. Besides, the TGI in [7] came out at 3.09 µM; in assay [5] it was 2.73 µM; in assay [6], 28.3 µM.

`O=C(OCCCl)C1OC(n2cc(F)c(=O)[nH]c2=O)CC1O` (centres undefined): the TGI in assay [1], in assay [8], in [2], in [3], in assay [4] and in assay [5] was more than 100 µM each time. For the same molecule, the TGI in [6] is more than 100 µM.

On to `O=C1C(=C([O-])c2ccccc2)C(=O)c2ccccc21.O=C1C(=C([O-])c2ccccc2)C(=O)c2ccccc21.[Mn+2]`, for which the results for the GI50 in [1], in assay [8] and in [6] were more than 100 µM, 62 µM and 35.4 µM, respectively. Moreover, the TGI in [1], in assay [8] and in assay [6] was more than 100 µM throughout.

Consider `O=C(/C=C/c1ccccc1O)c1ccc([N+](=O)[O-])cc1`, for which the TGI in assay [1] stood at 36.5 µM; in [8], 26.3 µM; in assay [9], 89.9 µM; in assay [2], 26.7 µM; in [3], 39.7 µM; in assay [4], 89.1 µM. Moreover, the TGI in assay [5] is 32.7 µM; in assay [6] it was more than 100 µM.

Turning to `NS(=O)(=O)c1ccc(NC(=O)Cc2nc3ccccc3s2)cc1`, the TGI was found to be 28.1 µM in assay [1]; 29.5 µM in assay [8]; 30.3 µM in [9]; 30.7 µM in assay [2]; 33.9 µM in [3]; 41.6 µM in assay [4]. The TGI in [5] came to 29.8 µM; in assay [6] it was 34.8 µM.

As for `Cc1ccc(/C=C(\NC(=O)c2ccccc2)c2nc3ccccc3[nH]2)cc1`, the TGI in [1], in assay [8], in assay [2], in assay [3] and in assay [6] was more than 100 µM throughout.

As to `CCOc1ccc(/C=C/c2cc(OC)c(OC)c(OC)c2)cc1`, the TGI is more than 100 µM in [1]; more than 100 µM in [8]; more than 38 µM in [9]; 15.1 µM in assay [2]; 6.81 µM in [3]; 0.85 µM in assay [4]. For the same molecule, the TGI in [5] and in assay [6] was more than 100 µM each time.

Consider `CC(=O)OCCOCNC(=S)N/N=C/c1cc([N+](=O)[O-])ccc1O`, for which the TGI in [1], in assay [8], in assay [9], in assay [2], in [3] and in assay [4] was more than 100 µM in each case. Also, the TGI in assay [5] and in [6] was more than 100 µM in each case.

Regarding `Oc1ccc2c3c1OC1c4[nH]ncc4C[C@H]4[C@@H](C2)N(CC2CC2)CC[C@]314` (some centres undefined), in [7], the TGI was more than 100 µM.

`O=C(Cc1nc2ccccc2o1)C(=O)Nc1cccc(Cl)c1`: the TGI in assay [1], in assay [8], in assay [2], in assay [3], in [4] and in assay [5] was more than 100 µM throughout. In addition, in [6], the TGI was more than 100 µM.

Regarding `Cc1[nH]c2ccccc2c1CC/C(=N\Nc1ccccc1)c1ccccc1`, the TGI in assay [8], in assay [9], in assay [3], in assay [4] and in [5] was more than 100 µM throughout.

On to `c1ccncc1`, for which the TGI in assay [8], in [2] and in assay [3] was more than 100 µM each time.

On to `CCOC(=O)C(CCC(N)=O)(CCC(=O)OC)C(=O)OCC`, for which the TGI in assay [1], in [8], in assay [2], in assay [3], in assay [4] and in assay [5] was more than 100 µM in each case. In assay [6], this molecule displayed a TGI of more than 100 µM.

On to `NC1CCCCC1N.O=C1C=C/C(=C(/c2ccc(O)c(Br)c2)c2ccccc2S(=O)(=O)[O-])C=C1Br.O=C1C=C/C(=C(/c2ccc(O)c(Br)c2)c2ccccc2S(=O)(=O)[O-])C=C1Br.[Pt+4]`, for which the GI50 was 0.539 µM in [1]; 5.27 µM in [8]; 4.43 µM in [2]; 0.755 µM in [3]; 48.2 µM in [4]; 0.112 µM in assay [5]. Besides, the GI50 in assay [6] was 7.95 µM. The TGI in assay [1] was 32.2 µM; in assay [8], more than 100 µM; in [2] it was more than 100 µM; in [3], more than 100 µM; in assay [4], more than 100 µM; in [5], 0.927 µM. The molecule further came in with a TGI in [6] of more than 100 µM.

Consider `COC(=O)c1ncc2c(=O)[nH]c3ccccc3c2c1C(=O)OC`, for which the TGI in assay [1], in assay [8], in [9], in assay [2], in [3] and in [4] was more than 100 µM throughout. Besides, the TGI in [5] and in assay [6] was more than 100 µM each time.

In the case of `CC(C)(C)C(=O)Nc1cccc2oc(-c3ccccc3)cc12`, the TGI in assay [1], in [8], in [9], in assay [2], in [3] and in [4] was more than 100 µM each time. For the same molecule, the TGI in [6] is more than 100 µM.

In the case of `COc1cccc(-c2cc(=O)c3cc(N4CCOCC4)ccc3[nH]2)c1`, the TGI in assay [7] was 0.0278 µM.

In the case of `COc1cc(CC2c3cc(OC)c(OC)cc3CCN2C)ccc1O` (centres undefined), the TGI in [8], in assay [2], in [3], in [4], in assay [5] and in [6] was more than 100 µM throughout.

Regarding `COc1cc(/C=C2\CCC/C(=C\c3ccc(O)c(OC)c3)C2=O)ccc1O`, the TGI in assay [1] came out at 3.9 µM; in assay [8] it was 3.38 µM; in assay [2], 4.22 µM; in assay [3], 28.7 µM; in assay [4] it was 8.03 µM; in [7], 12.5 µM. Further, the TGI in assay [5] amounted to 16.8 µM; in assay [6], 9.21 µM.

The molecule `COc1ccc2c3c1OC1C(OC)(OC)C=C[C@@]4(Br)[C@@H](C2)N(CC2CC2)CC[C@]314` (some centres undefined) had a TGI in [7] of more than 100 µM.
